Test results from patent US9877993B2, “Composition for cognitive and cosmetic purposes” (BIOTROPICS MALAYSIA BERHAD, priority 2012, dated 2018).
Read-outs that look alike come from different tables or passages of the source.

What was measured:
[1] = test system: Collagenase from Clostridium histolyticum; test: Collagenase inhibition bioassay in vitro (EnzChek gelatinase/collagenase kit); type: biochemical
Description: Solvents and reagents: EnzChek™gelatinase/Collagenase Assay kit (E12055, Molecular probes, Invitrogen, USA, Stored at −20° C.) containing: DQ gelatin from pigskin, Flourescein conjugate, 10× reaction buffer, 1,10 Phenanthroline monohydrate, Collagenase from Clostridium histolyticum.
2.5 mg of sample was prepared by dissolving it into 200 μl of DMSO and made up to 10 ml with 1× reaction buffer. Further dilutions were made as required. The enzymatic cleavage of DQ gelatin, Flourescein conjugate releases flourescent peptide. The increase in fluorescence is proportional to proteolytic activity. The digested product form DQ gelatin, Flourescein conjugate is excited with light at 490 nm and the emitted light at 520 nm is detected in a fluorometric plate reader.
Collagenase inhibition assay was carried out as per the kit insert of EnzChek™gelatinase/Collagenase Assay kit (E12055, Molecular probes, Invitrogen, USA). In brief, 80 μl of 1× reaction buffer/vehicle buffer/test solution/positive control of various concentrations, 100 μl of enzyme solution (0.1 units/ml), 20 μl of substrate solution (1 mg/ml) were added and mixed for 15 sec, incubated at 25° C. for 2 hours and read in a fluorescence microplate reader [Fluostar Optima, BMG Labtech, Germany] with the following parameters wherein it was excited at 490 nm, and the emission at 520 nm was recorded by the Costar 96 fluorometric plate reader.
A control reaction was carried out without the test samples respective sample blanking, control blanking and vehicle blanking were done (which contained all reagents except the enzymes). The percentage inhibition was calculated as follows:
[formula] where AFU=arbitrary fluorescence units and IC50 was calculated using log-probit analysis.

scopolamine treated mice = test: Barnes maze, scopolamine induced deficits in learning and memory; type: in vivo, C57BL/6 mice
Excerpt: The animals are placed on an elevated, open, circular platform. The animal is exposed to intense light, or to a loud noise. In response to this intense stimulation the animal searches for shelter and enters one of the holes around the platform. Although the device was originally designed to be used with rats, soon it experienced modifications in order to be used with mice as well. Indeed, the device has been considered appropriate for this species because of its ability to find and escape through small holes.
Scopolamine, a muscarinic cholinergic antagonist, is known to cause impairments in Barnes maze testing. These impairments can be reversed by increasing cholinergic tone by the administration of cholinesterase inhibitors such as donepezil.
The scopolamine induced deficits in learning were evidenced by the increase in both total and primary errors, total and primary latency and total and primary path length. The Barnes mazes testing involves the parameters as set forth below.
Primary Path Length (cm): The distance moved by the subject before first contact with the escape hole. First contact is defined as the point of the nose touching the escape hole.
Total Path Length (cm): The distance moved by the subject before completing the task. Completion of task is defined as the entering of the subject into escape box. This ends the trial.
Primary Errors: The count of the number of errors made by the subject before first contact with the escape hole. Any contact of the nose point to a non-escape hole is considered as an error. Multiple contacts to the same non-escape hole are counted as multiple errors under this context. Total Errors: The count of the number of errors made by the subject throughout the trial. Any contact of the nose point to a non-escape hole is considered as an error. Multiple contacts to the same non-escape hole are counted as multiple errors under this context. Primary Latency (sec): The latency to the first contact with the escape hole by the nose point of the subject. Total Latency (sec): The latency for subject to complete the task. Completion of task is defined as the entering of the subject into escape box, which ends the trial. (i) Test Article
The test articles, propriety Polygonum minus extract and commercially available Ginkgo biloba extract (comparator extract) were used in this study. These extracts were prepared and stored for the project to the supplier's specifications. The doses of the extract chosen for the study were identified by the supplier A 30× stock suspension was prepared every week for each article. This was aliquot into batches which were then stored at 4° C. throughout the week. The stock suspension was diluted with ultra-pure water to working concentration every day before the dosing, and discarded after the dosing. Oral gavage needles were filled with the required amounts of suspension. Care was taken to ensure the even distribution of particles by vortex-mixing the suspensions before preparation in individual syringes, and also by syringe-mixing the diluted test article. The dose and time of scopolamine administration has been previously shown to produce deficits in spatial navigation tasks in rodents. The dose was increased from the initially reported 0.3 mg/kg to 0.5 mg/kg, as the higher dose would produce a more reliable deficit.
2-6 month-old male C57BL/6 mice (20-25 g), (n=12 to 14) were supplied by BioLASCO (Taiwan). They were housed in an IVC system (Allentown, USA) under a 12/12-h light/dark (200-300 Lux) cycle (lights on 07:00 h) with free access to food (Labdiet, formulated laboratory chow) and water and humidity keep between 50%-70%. The total animals used for each treatment are shown in the Table 13 below (subjects used for each arm in the experiment).
Chronic treatment via p.o. was conducted with the TEST COMPOUNDS (test dose 1 and 2) as per Table 12 and Table 12 above and CONTROL […] (vehicle and ginkgo) continuously for 19 days. Dosing was given daily at 1800 hr. […]

[2] = donepezil 1 mg/kg i.p. + scopolamine
[3] = scopolamine 0.5 mg/kg i.p. vs vehicle control treated group
[4] = scopolamine 0.5 mg/kg i.p. vs vehicle treated control mice

O.c1cnc2c(c1)ccc1cccnc12 [1,10-Phenanthroline monohydrate]
% inhibition [1]: 40.81% | % inhibition ([1]; 12.5 μM): 0.00% | % inhibition ([1]; 25 Mm): 11.60% | % inhibition ([1]; 100 Mm): 88.00% | IC50 ([1]; log-probit analysis, read-out: IC50 (95% confidence interval)): 53.2 µM

COc1cc2c(cc1OC)C(=O)C(CC1CCN(Cc3ccccc3)CC1)C2 (stereo not shown) [donepezil]
Primary and total latency, scopolamine induced deficit (scopolamine treated mice; [2]): A similar result is obtained | Scopolamine induced deficits in acquisition (learning) phase (scopolamine treated mice; [2]): attenuated | Path length, scopolamine induced deficit (scopolamine treated mice; donepezil 1 mg/kg i.p. + scopolamine 0.5 mg/kg i.p.): did not show a scopolamine induced deficit | Probe trial, time spent in target segment (memory deficit) (scopolamine treated mice; donepezil 1 mg/kg i.p. + scopolamine, day 5): reversed the scopolamine deficit | Total errors, scopolamine induced deficit (scopolamine treated mice; donepezil 1 mg/kg i.p. + scopolamine, days one and two): deficits for total errors were not seen

CN1[C@@H]2C[C@@H](OC(=O)[C@H](CO)c3ccccc3)C[C@H]1[C@@H]1O[C@@H]12 [scopolamine]
Primary and total latency, learning (scopolamine treated mice; scopolamine 0.5 mg/kg i.p. vs vehicle control): induces a deficit in learning | Primary path length, performance (scopolamine treated mice; [3]): decreased performance only on day two | Total path length, days with decreased performance (scopolamine treated mice; [3]): days one two and three | Primary errors, learning (scopolamine treated mice; [4]): induced a deficit in learning on day two | Total errors, days with deficit in learning (scopolamine treated mice; [4]): on days one and two | Probe trial, preference for target segment (memory) (scopolamine treated mice; scopolamine 0.5 mg/kg i.p., day 5): induced a deficit in memory
